# Results from ChEMBL document CHEMBL1201861, “Genomics of Drug Sensitity in Cancer screening data, Wellcome Trust Sanger Institute”.
# pIC50: −log10 of the molar value.
# System: COLO-792
# Assay: cells
# Assay type: functional, cell-based
# Conditions: Homo sapiens
# Description: SANGER: Inhibition of human COLO-792 cell growth in a cell viability assay.
row,SMILES,pIC50
1,CC1=C(/C=C/C(C)=C/C=C/C(C)=C/C(=O)O)C(C)(C)CCC1 [TRETINOIN],< 5.00

# System: COR-L105;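 further: cell growth inhibition determined with a viability assay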
# Assay: cells
# Assay type: functional, cell-based
# Conditions: Homo sapiens
# Description: SANGER: Inhibition of human COR-L105 cell growth in a cell viability assay.
row,SMILES,pIC50
1,CC1=C(/C=C/C(C)=C/C=C/C(C)=C/C(=O)O)C(C)(C)CCC1 [TRETINOIN],< 5.00

# System: CP50-MEL-B;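 further: growth inhibition of the human cell line, measured with a cell viability read-out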
# Assay: cells
# Assay type: functional, cell-based
# Conditions: Homo sapiens
# Description: SANGER: Inhibition of human CP50-MEL-B cell growth in a cell viability assay.
row,SMILES,pIC50
1,CC1=C(/C=C/C(C)=C/C=C/C(C)=C/C(=O)O)C(C)(C)CCC1 [TRETINOIN],< 5.00

# System: CP66-MEL;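 further: growth inhibition of CP66-MEL cells determined in a cell viability assay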
# Assay: cells
# Assay type: functional, cell-based
# Conditions: Homo sapiens
# Description: SANGER: Inhibition of human CP66-MEL cell growth in a cell viability assay.
row,SMILES,pIC50
1,CC1=C(/C=C/C(C)=C/C=C/C(C)=C/C(=O)O)C(C)(C)CCC1 [TRETINOIN],< 5.00

# System: D-336MG
# Assay: cells
# Assay type: functional, cell-based, Homo sapiens
# Conditions: Homo sapiens, D-336MG
# Description: SANGER: Inhibition of human D-336MG cell growth in a cell viability assay.
row,SMILES,pIC50
1,CC1=C(/C=C/C(C)=C/C=C/C(C)=C/C(=O)O)C(C)(C)CCC1 [TRETINOIN],< 5.00

# System: DBTRG-05MG;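 further: cell viability assay measuring growth inhibition of human DBTRG-05MG cells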
# Assay: cells
# Assay type: functional, cell-based
# Conditions: Homo sapiens
# Description: SANGER: Inhibition of human DBTRG-05MG cell growth in a cell viability assay.
row,SMILES,pIC50
1,CC1=C(/C=C/C(C)=C/C=C/C(C)=C/C(=O)O)C(C)(C)CCC1 [TRETINOIN],< 5.00

# System: ESS-1;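 further: growth inhibition of human ESS-1 cells, read out by a cell viability assay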
# Assay: cells
# Assay type: functional, cell-based
# Conditions: Homo sapiens
# Description: SANGER: Inhibition of human ESS-1 cell growth in a cell viability assay.
row,SMILES,pIC50
1,CC1=C(/C=C/C(C)=C/C=C/C(C)=C/C(=O)O)C(C)(C)CCC1 [TRETINOIN],< 5.00

# System: G-361
# Assay: cells
# Assay type: functional, cell-based
# Conditions: Homo sapiens
row,SMILES,pIC50
1,CC1=C(/C=C/C(C)=C/C=C/C(C)=C/C(=O)O)C(C)(C)CCC1 [TRETINOIN],< 5.00

# System: GMS-10;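 further: growth inhibition of GMS-10 cells, read out as cell viability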
# Assay: cells
# Assay type: functional, cell-based
# Conditions: Homo sapiens
# Description: SANGER: Inhibition of human GMS-10 cell growth in a cell viability assay.
row,SMILES,pIC50
1,CC1=C(/C=C/C(C)=C/C=C/C(C)=C/C(=O)O)C(C)(C)CCC1 [TRETINOIN],< 5.00

# System: HCC1419;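 further: growth inhibition of human HCC1419 cells, read out as cell viability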
# Assay: cells
# Assay type: functional, cell-based
# Conditions: Homo sapiens
# Description: SANGER: Inhibition of human HCC1419 cell growth in a cell viability assay.
row,SMILES,pIC50
1,CC1=C(/C=C/C(C)=C/C=C/C(C)=C/C(=O)O)C(C)(C)CCC1 [TRETINOIN],< 5.00

# System: HSC-4;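 further: growth inhibition of human HSC-4 cells, read out with a cell viability assay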
# Assay: cells
# Assay type: functional, cell-based
# Conditions: Homo sapiens
# Description: SANGER: Inhibition of human HSC-4 cell growth in a cell viability assay.
row,SMILES,pIC50
1,CC1=C(/C=C/C(C)=C/C=C/C(C)=C/C(=O)O)C(C)(C)CCC1 [TRETINOIN],< 5.00

# System: HT-1080
# Assay: cells
# Assay type: functional, cell-based
# Conditions: Homo sapiens
# Description: SANGER: Inhibition of human HT-1080 cell growth in a cell viability assay.
row,SMILES,pIC50
1,CC1=C(/C=C/C(C)=C/C=C/C(C)=C/C(=O)O)C(C)(C)CCC1 [TRETINOIN],< 5.00

# System: Hs-578T
# Assay: cells
# Assay type: functional, cell-based
# Conditions: Homo sapiens
# Description: SANGER: Inhibition of human Hs-578-T cell growth in a cell viability assay.
row,SMILES,pIC50
1,CC1=C(/C=C/C(C)=C/C=C/C(C)=C/C(=O)O)C(C)(C)CCC1 [TRETINOIN],< 5.00

# System: HuO9;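 further: growth inhibition of HuO9 cells, read out with a cell viability assay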
# Assay: cells
# Assay type: functional, cell-based
# Conditions: Homo sapiens
# Description: SANGER: Inhibition of human HuO9 cell growth in a cell viability assay.
row,SMILES,pIC50
1,CC1=C(/C=C/C(C)=C/C=C/C(C)=C/C(=O)O)C(C)(C)CCC1 [TRETINOIN],< 5.00

# System: KOSC-2;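 further: growth inhibition of KOSC-2 cells, read out by a cell viability assay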
# Assay: cells
# Assay type: functional, cell-based
# Conditions: Homo sapiens
# Description: SANGER: Inhibition of human KOSC-2 cell growth in a cell viability assay.
row,SMILES,pIC50
1,CC1=C(/C=C/C(C)=C/C=C/C(C)=C/C(=O)O)C(C)(C)CCC1 [TRETINOIN],< 5.00

# System: KYSE-180;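 further: growth inhibition of KYSE-180 cells, read out with a cell viability assay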
# Assay: cells
# Assay type: functional, cell-based
# Conditions: Homo sapiens
# Description: SANGER: Inhibition of human KYSE-180 cell growth in a cell viability assay.
row,SMILES,pIC50
1,CC1=C(/C=C/C(C)=C/C=C/C(C)=C/C(=O)O)C(C)(C)CCC1 [TRETINOIN],5.17

# System: KYSE-410;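 further: growth inhibition of KYSE-410 cells, measured through a cell viability readout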
# Assay: cells
# Assay type: functional, cell-based
# Conditions: Homo sapiens
# Description: SANGER: Inhibition of human KYSE-410 cell growth in a cell viability assay.
row,SMILES,pIC50
1,CC1=C(/C=C/C(C)=C/C=C/C(C)=C/C(=O)O)C(C)(C)CCC1 [TRETINOIN],< 5.00

# System: KYSE-450;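 further: cell growth inhibition measured by a viability assay in human KYSE-450 cells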
# Assay: cells
# Assay type: functional, cell-based
# Conditions: Homo sapiens
# Description: SANGER: Inhibition of human KYSE-450 cell growth in a cell viability assay.
row,SMILES,pIC50
1,CC1=C(/C=C/C(C)=C/C=C/C(C)=C/C(=O)O)C(C)(C)CCC1 [TRETINOIN],< 5.00

# System: MDA-MB-175-VII
# Assay: cells
# Assay type: functional, cell-based
# Conditions: Homo sapiens
row,SMILES,pIC50
1,CC1=C(/C=C/C(C)=C/C=C/C(C)=C/C(=O)O)C(C)(C)CCC1 [TRETINOIN],< 5.00

# System: MDA-MB-361
# Assay: cells
# Assay type: functional, cell-based
# Conditions: Homo sapiens
row,SMILES,pIC50
1,CC1=C(/C=C/C(C)=C/C=C/C(C)=C/C(=O)O)C(C)(C)CCC1 [TRETINOIN],< 5.00

# System: MDA-MB-415
# Assay: cells
# Assay type: functional, cell-based
# Conditions: Homo sapiens
row,SMILES,pIC50
1,CC1=C(/C=C/C(C)=C/C=C/C(C)=C/C(=O)O)C(C)(C)CCC1 [TRETINOIN],< 5.00

# System: NCI-H1563;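 further: growth inhibition of human NCI-H1563 cells, read out with a cell viability assay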
# Assay: cells
# Assay type: functional, cell-based
# Conditions: Homo sapiens
# Description: SANGER: Inhibition of human NCI-H1563 cell growth in a cell viability assay.
row,SMILES,pIC50
1,CC1=C(/C=C/C(C)=C/C=C/C(C)=C/C(=O)O)C(C)(C)CCC1 [TRETINOIN],< 5.00

# System: NCI-H2009;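 further: cell viability assay measuring inhibition of NCI-H2009 cell growth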
# Assay: cells
# Assay type: functional, cell-based
# Conditions: Homo sapiens
# Description: SANGER: Inhibition of human NCI-H2009 cell growth in a cell viability assay.
row,SMILES,pIC50
1,CC1=C(/C=C/C(C)=C/C=C/C(C)=C/C(=O)O)C(C)(C)CCC1 [TRETINOIN],< 5.00

# System: NCI-H650;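 further: growth inhibition of NCI-H650 cells, read out by a viability assay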
# Assay: cells
# Assay type: functional, cell-based
# Conditions: Homo sapiens
# Description: SANGER: Inhibition of human NCI-H650 cell growth in a cell viability assay.
row,SMILES,pIC50
1,CC1=C(/C=C/C(C)=C/C=C/C(C)=C/C(=O)O)C(C)(C)CCC1 [TRETINOIN],< 5.00

# System: NUGC-3;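 further: growth inhibition of human NUGC-3 cells, read out with a cell viability assay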
# Assay: cells
# Assay type: functional, cell-based
# Conditions: Homo sapiens
# Description: SANGER: Inhibition of human NUGC-3 cell growth in a cell viability assay.
row,SMILES,pIC50
1,CC1=C(/C=C/C(C)=C/C=C/C(C)=C/C(=O)O)C(C)(C)CCC1 [TRETINOIN],< 5.00

# System: OE19;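 further: growth inhibition of OE19 cells, measured through a cell viability read-out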
# Assay: cells
# Assay type: functional, cell-based
# Conditions: Homo sapiens
# Description: SANGER: Inhibition of human OE19 cell growth in a cell viability assay.
row,SMILES,pIC50
1,CC1=C(/C=C/C(C)=C/C=C/C(C)=C/C(=O)O)C(C)(C)CCC1 [TRETINOIN],< 5.00

# System: PANC-03-27
# Assay: cells
# Assay type: functional, cell-based
# Conditions: Homo sapiens
# Description: SANGER: Inhibition of human PANC-03-27 cell growth in a cell viability assay.
row,SMILES,pIC50
1,CC1=C(/C=C/C(C)=C/C=C/C(C)=C/C(=O)O)C(C)(C)CCC1 [TRETINOIN],< 5.00

# System: RPMI-7951
# Assay: cells
# Assay type: functional, cell-based
# Conditions: Homo sapiens
# Description: SANGER: Inhibition of human RPMI-7951 cell growth in a cell viability assay.
row,SMILES,pIC50
1,CC1=C(/C=C/C(C)=C/C=C/C(C)=C/C(=O)O)C(C)(C)CCC1 [TRETINOIN],< 5.00

# System: SAS;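 further: growth inhibition of SAS cells, read out with a cell viability assay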
# Assay: cells
# Assay type: functional, cell-based
# Conditions: Homo sapiens
# Description: SANGER: Inhibition of human SAS cell growth in a cell viability assay.
row,SMILES,pIC50
1,CC1=C(/C=C/C(C)=C/C=C/C(C)=C/C(=O)O)C(C)(C)CCC1 [TRETINOIN],< 5.00

# System: SJRH30;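 further: growth inhibition of human SJRH30 cells, read out with a cell viability assay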
# Assay: cells
# Assay type: functional, cell-based
# Conditions: Homo sapiens
# Description: SANGER: Inhibition of human SJRH30 cell growth in a cell viability assay.
row,SMILES,pIC50
1,CC1=C(/C=C/C(C)=C/C=C/C(C)=C/C(=O)O)C(C)(C)CCC1 [TRETINOIN],< 5.00

# System: SK-LU-1;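 further: cell viability assay measuring growth inhibition of human SK-LU-1 cells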
# Assay: cells
# Assay type: functional, cell-based
# Conditions: Homo sapiens
# Description: SANGER: Inhibition of human SK-LU-1 cell growth in a cell viability assay.
row,SMILES,pIC50
1,CC1=C(/C=C/C(C)=C/C=C/C(C)=C/C(=O)O)C(C)(C)CCC1 [TRETINOIN],< 5.00

# System: SKG-IIIa;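 further: cell growth inhibition, read out with a cell viability assay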
# Assay: cells
# Assay type: functional, cell-based
# Conditions: Homo sapiens
# Description: SANGER: Inhibition of human SKG-IIIa cell growth in a cell viability assay.
row,SMILES,pIC50
1,CC1=C(/C=C/C(C)=C/C=C/C(C)=C/C(=O)O)C(C)(C)CCC1 [TRETINOIN],< 5.00

# System: SN12C;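 further: growth inhibition of human SN12C cells, measured by a cell viability assay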
# Assay: cells
# Assay type: functional, cell-based
# Conditions: Homo sapiens
# Description: SANGER: Inhibition of human SN12C cell growth in a cell viability assay.
row,SMILES,pIC50
1,CC1=C(/C=C/C(C)=C/C=C/C(C)=C/C(=O)O)C(C)(C)CCC1 [TRETINOIN],< 5.00

# System: SW756;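 further: growth inhibition of human SW756 cells, read out with a cell viability assay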
# Assay: cells
# Assay type: functional, cell-based
# Conditions: Homo sapiens
# Description: SANGER: Inhibition of human SW756 cell growth in a cell viability assay.
row,SMILES,pIC50
1,CC1=C(/C=C/C(C)=C/C=C/C(C)=C/C(=O)O)C(C)(C)CCC1 [TRETINOIN],< 5.00

# System: SiHa;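 further: Viability-based readout of growth inhibition in SiHa cells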
# Assay: cells
# Assay type: functional, cell-based
# Conditions: Homo sapiens
# Description: SANGER: Inhibition of human SiHa cell growth in a cell viability assay.
row,SMILES,pIC50
1,CC1=C(/C=C/C(C)=C/C=C/C(C)=C/C(=O)O)C(C)(C)CCC1 [TRETINOIN],< 5.00

# System: 8505C
# Assay: cells
# Assay type: functional, cell-based
# Conditions: Homo sapiens
# Description: SANGER: Inhibition of human 8505C cell growth in a cell viability assay.
row,SMILES,pIC50
1,CC1=C(/C=C/C(C)=C/C=C/C(C)=C/C(=O)O)C(C)(C)CCC1 [TRETINOIN],< 5.00

# System: A 172;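 further: growth inhibition of A172 cells, measured with a cell viability readout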
# Assay: cells
# Assay type: functional, cell-based
# Conditions: Homo sapiens
# Description: SANGER: Inhibition of human A172 cell growth in a cell viability assay.
row,SMILES,pIC50
1,CC1=C(/C=C/C(C)=C/C=C/C(C)=C/C(=O)O)C(C)(C)CCC1 [TRETINOIN],< 5.00

# System: AGS;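 further: growth inhibition of AGS cells, determined with a cell viability assay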
# Assay: cells
# Assay type: functional, cell-based
# Conditions: Homo sapiens
# Description: SANGER: Inhibition of human AGS cell growth in a cell viability assay.
row,SMILES,pIC50
1,CC1=C(/C=C/C(C)=C/C=C/C(C)=C/C(=O)O)C(C)(C)CCC1 [TRETINOIN],< 5.00

# System: AN3-CA;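 further: growth inhibition of human AN3-CA cells measured by a cell viability assay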
# Assay: cells
# Assay type: functional, cell-based
# Conditions: Homo sapiens
# Description: SANGER: Inhibition of human AN3-CA cell growth in a cell viability assay.
row,SMILES,pIC50
1,CC1=C(/C=C/C(C)=C/C=C/C(C)=C/C(=O)O)C(C)(C)CCC1 [TRETINOIN],< 5.00

# System: BT-20;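 further: cell viability assay measuring suppression of growth in human BT-20 cells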
# Assay: cells
# Assay type: functional, cell-based
# Conditions: Homo sapiens
# Description: SANGER: Inhibition of human BT-20 cell growth in a cell viability assay.
row,SMILES,pIC50
1,CC1=C(/C=C/C(C)=C/C=C/C(C)=C/C(=O)O)C(C)(C)CCC1 [TRETINOIN],< 5.00

# System: CAL-12T;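 further: growth inhibition of human CAL-12T cells, read out with a cell viability assay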
# Assay: cells
# Assay type: functional, cell-based
# Conditions: Homo sapiens
# Description: SANGER: Inhibition of human CAL-12T cell growth in a cell viability assay.
row,SMILES,pIC50
1,CC1=C(/C=C/C(C)=C/C=C/C(C)=C/C(=O)O)C(C)(C)CCC1 [TRETINOIN],< 5.00

# System: U-118-MG
# Assay: cells
# Assay type: functional, cell-based
# Conditions: Homo sapiens
# Description: SANGER: Inhibition of human U-118-MG cell growth in a cell viability assay.
row,SMILES,pIC50
1,CC1=C(/C=C/C(C)=C/C=C/C(C)=C/C(=O)O)C(C)(C)CCC1 [TRETINOIN],< 5.00

# System: YAPC;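 further: growth inhibition of YAPC cells, measured with a cell viability assay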
# Assay: cells
# Assay type: functional, cell-based
# Conditions: Homo sapiens
# Description: SANGER: Inhibition of human YAPC cell growth in a cell viability assay.
row,SMILES,pIC50
1,CC1=C(/C=C/C(C)=C/C=C/C(C)=C/C(=O)O)C(C)(C)CCC1 [TRETINOIN],< 5.00

# System: COLO-678
# Assay: cells
# Assay type: functional, cell-based
# Conditions: Homo sapiens
# Description: SANGER: Inhibition of human COLO-678 cell growth in a cell viability assay.
row,SMILES,pIC50
1,CC1=C(/C=C/C(C)=C/C=C/C(C)=C/C(=O)O)C(C)(C)CCC1 [TRETINOIN],< 5.00

# System: COLO-679
# Assay: cells
# Assay type: functional, cell-based
# Conditions: Homo sapiens
# Description: SANGER: Inhibition of human COLO-679 cell growth in a cell viability assay.
row,SMILES,pIC50
1,CC1=C(/C=C/C(C)=C/C=C/C(C)=C/C(=O)O)C(C)(C)CCC1 [TRETINOIN],< 5.00

# System: COLO-680N;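 further: cell viability assay used to measure inhibition of COLO-680N cell growth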
# Assay: cells
# Assay type: functional, cell-based
# Conditions: Homo sapiens
# Description: SANGER: Inhibition of human COLO-680N cell growth in a cell viability assay.
row,SMILES,pIC50
1,CC1=C(/C=C/C(C)=C/C=C/C(C)=C/C(=O)O)C(C)(C)CCC1 [TRETINOIN],< 5.00
